ChEMBL document CHEMBL3745703, “Preclinical characterization of substituted 6,7-dihydro-[1,2,4]triazolo[4,3-a]pyrazin-8(5H)-one P2X7 receptor antagonists” (Bioorg Med Chem Lett, 2016)
≈ marks a conversion by molar mass, not a printed value.

Columns and labels:
[1] = Plasma concentration in Sprague-Dawley rat at 10 mg/kg, po at Tmax; type: ADME, organism-based
[2] = Apparent permeability from basolateral to apical side in human Caco2 cells; type: ADME, cell-based; settings: Caco-2
[3] = Apparent permeability from apical to basolateral side in human Caco2 cells; type: ADME, cell-based; settings: Caco-2
[4] = Half life in rat at 1 mg/kg, iv and 5 mg/kg, po; type: ADME, organism-based; settings: in vivo
[5] = Clearance in rat at 1 mg/kg, iv and 5 mg/kg, po; type: ADME, organism-based; settings: in vivo
[6] = Volume of distribution at steady state in rat at 1 mg/kg, iv and 5 mg/kg, po; type: ADME, organism-based; settings: in vivo, read-out: Vdss
[7] = Aqueous equilibrium solubility of the compound at pH 2; type: physicochemical
Rattus norvegicus [8] = organism: Rattus norvegicus; assay: Ex vivo receptor occupancy at P2X7 receptor in Sprague-Dawley rat hippocampus assessed as inhibition of [3H] A-804598 binding at Tmax by autoradiography; type: functional
Brain = assay: Drug uptake in Sprague-Dawley rat brain at 10 mg/kg, po at Tmax; type: ADME, organism-based; settings: in vivo
[9] = Aqueous equilibrium solubility of the compound at pH 7; type: physicochemical
[10] = Plasma protein binding in rat at 1 uM; type: ADME, cell-free; settings: read-out: PPB (converted)
[11] = Oral bioavailability in rat at 5 mg/kg; type: ADME, organism-based; settings: in vivo
[12] = Plasma protein binding in human at 1 uM; type: ADME, cell-free; settings: read-out: PPB (converted)
P2X purinoceptor 7 [13] = target: T1, P2X purinoceptor 7 (Rattus norvegicus, UniProt Q64663); assay: Antagonist activity at rat P2X7 receptor expressed in 1321N1 cells assessed as inhibition of Bz-ATP-induced Ca2+ flux after 30 mins by FLIPR assay; type: cell-based
T1 sequence (Q64663 whole entry): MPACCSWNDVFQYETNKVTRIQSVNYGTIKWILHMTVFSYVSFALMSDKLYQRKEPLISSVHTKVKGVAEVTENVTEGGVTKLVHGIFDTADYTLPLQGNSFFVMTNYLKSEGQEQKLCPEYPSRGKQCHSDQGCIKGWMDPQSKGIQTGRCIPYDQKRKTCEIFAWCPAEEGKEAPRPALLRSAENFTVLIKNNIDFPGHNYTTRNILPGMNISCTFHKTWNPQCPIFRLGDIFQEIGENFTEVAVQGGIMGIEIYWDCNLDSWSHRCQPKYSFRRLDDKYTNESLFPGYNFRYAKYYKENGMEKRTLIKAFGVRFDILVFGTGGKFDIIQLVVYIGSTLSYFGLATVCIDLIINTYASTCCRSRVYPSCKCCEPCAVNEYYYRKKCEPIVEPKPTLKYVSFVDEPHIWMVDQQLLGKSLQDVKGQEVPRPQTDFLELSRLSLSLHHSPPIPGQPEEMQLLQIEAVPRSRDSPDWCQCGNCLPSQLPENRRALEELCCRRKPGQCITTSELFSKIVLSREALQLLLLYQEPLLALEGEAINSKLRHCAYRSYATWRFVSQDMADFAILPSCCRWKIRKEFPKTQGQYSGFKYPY

[14] = Brain protein binding in Sprague-Dawley rat at 10 mg/kg, po; type: ADME, organism-based; settings: read-out: PB (converted)
[15] = Unbound brain to plasma partition ratio in Sprague-Dawley rat at 0.8 mg/kg, po; settings: read-out: K(p,uu,brain)
Rattus norvegicus [16] = organism: Rattus norvegicus; assay: animal or person; settings: Sprague-Dawley, P2X7, Plasma
Description: Ex vivo receptor occupancy at P2X7 receptor in po dosed Sprague-Dawley rat hippocampus assessed as inhibition of [3H]JNJ-54232334 binding by measuring plasma level after 30 mins

[17] = Ratio of drug level in brain to plasma in Sprague-Dawley rat at 10 mg/kg, po; type: ADME, organism-based; settings: read-out: BPR
[18] = Inhibition of CYP450 (unknown origin); type: ADME, Homo sapiens
Cytochrome P450 2C19 = Cytochrome P450 2C19 (Homo sapiens, UniProt P33261); assay: Inhibition of CYP2C19 (unknown origin); type: ADME
Rattus norvegicus [19] = organism: Rattus norvegicus; assay: animal or person; settings: Sprague-Dawley, P2X7
Description: Ex vivo receptor occupancy at P2X7 receptor in po dosed Sprague-Dawley rat hippocampus assessed as inhibition of [3H]JNJ-54232334 binding by measuring brain level after 30 mins

[20] = target: Voltage-gated inwardly rectifying potassium channel KCNH2 (Homo sapiens, UniProt Q12809); assay: Displacement of dofetilide from human ERG channel
[21] = Plasma protein binding in Sprague-Dawley rat at 10 mg/kg, po; type: ADME, organism-based; settings: read-out: PPB (converted)
Rattus norvegicus [22] = assay: Ex vivo receptor occupancy at P2X7 receptor in po dosed Sprague-Dawley rat hippocampus assessed as inhibition of [3H]JNJ-54232334 binding after 30 mins; type: functional
P2X purinoceptor 7 [23] = target: T2, P2X purinoceptor 7 (Homo sapiens, UniProt Q99572); assay: Antagonist activity at human P2X7 receptor expressed in 1321N1 cells assessed as inhibition of Bz-ATP-induced Ca2+ flux after 30 mins by FLIPR assay; type: cell-based
T2 sequence (Q99572 whole entry): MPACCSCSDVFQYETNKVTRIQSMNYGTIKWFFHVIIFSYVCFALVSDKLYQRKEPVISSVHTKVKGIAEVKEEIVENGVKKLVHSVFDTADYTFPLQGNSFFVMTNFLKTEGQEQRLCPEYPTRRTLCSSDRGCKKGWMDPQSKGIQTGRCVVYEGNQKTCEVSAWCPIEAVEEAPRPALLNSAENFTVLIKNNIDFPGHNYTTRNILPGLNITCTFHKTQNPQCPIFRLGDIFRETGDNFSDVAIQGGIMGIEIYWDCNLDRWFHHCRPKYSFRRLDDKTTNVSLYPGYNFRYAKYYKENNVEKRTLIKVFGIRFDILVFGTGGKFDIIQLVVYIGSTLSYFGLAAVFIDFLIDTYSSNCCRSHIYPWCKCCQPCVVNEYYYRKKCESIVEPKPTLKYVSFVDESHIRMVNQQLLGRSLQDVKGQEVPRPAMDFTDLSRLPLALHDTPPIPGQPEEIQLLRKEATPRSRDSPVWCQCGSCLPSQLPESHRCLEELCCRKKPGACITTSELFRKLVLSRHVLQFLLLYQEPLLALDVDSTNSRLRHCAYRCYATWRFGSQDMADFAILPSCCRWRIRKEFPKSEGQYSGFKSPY

[24] = Efflux ratio of apparent permeability from basolateral to apical side over apical to basolateral side in human Caco2 cells; type: ADME, cell-based; settings: Caco-2
[25] = Extraction ratio in rat liver microsomes at 1 uM; type: ADME; settings: read-out: ERH
[26] = Selectivity ratio of IC50 for rat P2X7 receptor to IC50 for human P2X7 receptor
[27] = Extraction ratio in human liver microsomes at 1 uM; type: ADME; settings: read-out: ERH

Chain of Voltage-gated inwardly rectifying potassium channel KCNH2 (Q12809 whole entry): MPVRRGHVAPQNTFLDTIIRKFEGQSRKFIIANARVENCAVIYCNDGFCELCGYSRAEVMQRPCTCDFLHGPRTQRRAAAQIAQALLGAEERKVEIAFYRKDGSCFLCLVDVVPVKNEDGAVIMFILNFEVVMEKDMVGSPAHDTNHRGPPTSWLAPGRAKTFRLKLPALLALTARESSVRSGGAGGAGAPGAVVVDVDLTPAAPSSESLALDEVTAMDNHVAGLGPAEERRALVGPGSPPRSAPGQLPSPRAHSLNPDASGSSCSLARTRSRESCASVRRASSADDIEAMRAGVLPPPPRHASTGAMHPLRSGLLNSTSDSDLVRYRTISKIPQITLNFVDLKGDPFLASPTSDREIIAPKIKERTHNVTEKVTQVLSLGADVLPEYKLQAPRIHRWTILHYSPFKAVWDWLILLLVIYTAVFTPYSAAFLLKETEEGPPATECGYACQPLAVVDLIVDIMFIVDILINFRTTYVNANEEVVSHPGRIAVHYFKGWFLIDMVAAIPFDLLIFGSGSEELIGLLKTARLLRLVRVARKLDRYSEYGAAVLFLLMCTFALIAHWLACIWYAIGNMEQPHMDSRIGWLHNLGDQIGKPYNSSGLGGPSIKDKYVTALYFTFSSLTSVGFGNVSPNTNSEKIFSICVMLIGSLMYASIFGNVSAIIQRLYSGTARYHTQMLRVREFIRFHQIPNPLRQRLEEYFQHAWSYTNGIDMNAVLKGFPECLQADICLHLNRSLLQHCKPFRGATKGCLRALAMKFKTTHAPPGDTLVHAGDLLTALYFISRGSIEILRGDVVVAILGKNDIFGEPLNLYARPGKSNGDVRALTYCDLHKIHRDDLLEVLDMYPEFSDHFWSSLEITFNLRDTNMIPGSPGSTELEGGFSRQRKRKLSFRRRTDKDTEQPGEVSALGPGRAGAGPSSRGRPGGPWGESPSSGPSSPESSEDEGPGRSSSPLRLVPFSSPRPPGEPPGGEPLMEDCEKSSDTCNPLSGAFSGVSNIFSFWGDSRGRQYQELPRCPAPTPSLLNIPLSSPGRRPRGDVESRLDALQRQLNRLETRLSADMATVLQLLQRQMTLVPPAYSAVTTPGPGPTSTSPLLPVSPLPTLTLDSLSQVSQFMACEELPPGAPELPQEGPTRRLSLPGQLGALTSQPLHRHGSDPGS
Chain of Cytochrome P450 2C19 (P33261 whole entry): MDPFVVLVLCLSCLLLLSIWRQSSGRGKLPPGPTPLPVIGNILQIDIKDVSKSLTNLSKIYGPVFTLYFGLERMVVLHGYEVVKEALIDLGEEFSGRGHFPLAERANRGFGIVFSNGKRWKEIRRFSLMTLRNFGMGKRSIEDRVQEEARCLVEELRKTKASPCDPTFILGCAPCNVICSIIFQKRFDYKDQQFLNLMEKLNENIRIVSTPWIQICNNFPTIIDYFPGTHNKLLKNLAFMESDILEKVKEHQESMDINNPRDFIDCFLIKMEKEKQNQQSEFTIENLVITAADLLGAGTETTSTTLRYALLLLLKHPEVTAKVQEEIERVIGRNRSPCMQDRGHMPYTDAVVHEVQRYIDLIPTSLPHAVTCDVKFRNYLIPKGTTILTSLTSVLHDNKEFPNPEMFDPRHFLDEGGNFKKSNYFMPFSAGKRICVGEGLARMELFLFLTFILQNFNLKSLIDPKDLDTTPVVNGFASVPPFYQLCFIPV

SMILES	Cmax [1] [ng/mL]	Papp B→A [2] [×10⁻⁶ cm/s]	Papp A→B [3] [×10⁻⁶ cm/s]	half-life [4] [h]	clearance [5] [mL/min/kg]	Vd [6] [L/kg]	solubility thermodynamic [7] [µM]	Occ (Rattus norvegicus [8]) [%]	Drug uptake (Brain) [ng/mL]	solubility thermodynamic [9] [µM]	fraction unbound at 1 µM [10]	bioavailability [11] [%]	fraction unbound at 1 µM [12]	IC50 (P2X purinoceptor 7 [13]) [nM]	IC50 (P2X purinoceptor 7 [23]) [nM]	also measured
C[C@H]1Cn2c(nnc2-c2cc[nH]n2)C(=O)N1Cc1cccc(C(F)(F)F)c1Cl	1310	65	5.4	3.9	13	4.2	41 (≈ 16.8 µg/mL)	3	41	95 (≈ 39 µg/mL)	0.1	81	0.08	–	–	–
C[C@H]1Cn2c(nnc2-c2cnccn2)C(=O)N1Cc1ccccc1Cl	–	–	–	–	–	–	–	–	–	–	–	–	–	> 10000	–	–
C[C@H]1Cn2c(nnc2-c2cnccn2)C(=O)N1Cc1cccc(C(F)(F)F)c1Cl	945	50	47	1	19	1.5	89 (≈ 37.6 µg/mL)	78	672	56 (≈ 23.7 µg/mL)	0.1	125	0.13	–	–	fraction unbound [14]: 0.046; Kp uu [15]: 0.51; EC50 (Rattus norvegicus [16]): 0.062 µg/mL (≈ 0.147 µM); Kp [17]: 0.7; IC50 [18]: > 10000 nM; IC50 (Cytochrome P450 2C19): 7200 nM; EC50 (Rattus norvegicus [19]): 0.066 µg/mL (≈ 0.156 µM); IC50 [20]: > 10000 nM; fraction unbound [21]: 0.096; ED50 (Rattus norvegicus [22]): 0.8 mg/kg; Occ (Rattus norvegicus [22]): Dose-dependent effect
O=C1c2nnn(-c3cnccn3)c2CCN1Cc1cccc(C(F)(F)F)c1Cl	–	–	–	–	–	–	–	–	–	–	–	–	–	> 10000	> 10000	–
C[C@H]1Cn2c(nnc2-c2cccnc2)C(=O)N1Cc1cccc(C(F)(F)F)c1Cl	1060	73	6.2	2.8	21	5	> 400	0	43	375 (≈ 158 µg/mL)	0.17	82	0.22	88	1.9	efflux ratio [24]: > 10; hepatic extraction ratio at 1 µM [25]: 0.3; Ratio IC50 [26]: 100; hepatic extraction ratio at 1 µM [27]: 0.3
C[C@H]1Cn2c(nnc2-c2ccc(F)cn2)C(=O)N1Cc1cccc(C(F)(F)F)c1Cl	–	–	–	–	–	–	–	–	–	–	–	–	–	–	0.7	–
C[C@H]1Cn2c(nnc2-c2ccn(C)n2)C(=O)N1Cc1cccc(C(F)(F)F)c1Cl	–	–	–	–	–	–	–	–	–	–	–	–	–	960	4.2	Ratio IC50 [26]: 100
O=C1c2nnc(-c3cnccn3)n2CCN1Cc1cccc(C(F)(F)F)c1Cl	–	–	–	–	–	–	–	–	–	–	–	–	–	8670	440	–
C[C@H]1Cn2c(nnc2-c2ncccn2)C(=O)N1Cc1cccc(C(F)(F)F)c1Cl	2790	64	4.4	4.8	11	3.3	176 (≈ 74.4 µg/mL)	41	116	201 (≈ 85 µg/mL)	0.17	80	0.21	–	–	–
C[C@H]1Cn2c(nnc2-c2cnccn2)C(=O)N1Cc1c(Cl)cccc1Cl	–	–	–	–	–	–	–	–	–	–	–	–	–	2380	–	–
C[C@H]1Cn2c(nnc2-c2ccccn2)C(=O)N1Cc1cccc(C(F)(F)F)c1Cl	–	–	–	–	–	–	–	–	–	–	–	–	–	350	0.5	Ratio IC50 [26]: 100
C[C@H]1Cn2c(nnc2-c2cnccn2)C(=O)N1Cc1cccc(C(F)(F)F)c1	–	–	–	–	–	–	–	–	–	–	–	–	–	4140	3.6	–
